Source: publication PMC9502272, “A Metabolomics Approach for Predicting OATP1B-Type Transporter-Mediated Drug–Drug Interaction Liabilities” (Pharmaceutics, 2022)
Counter-ions that a name gives are not always drawn.

Biological target: T1, Oatp1b2 (Mus musculus, UniProt Q9JJL3)
T1 sequence (Q9JJL3 1-689): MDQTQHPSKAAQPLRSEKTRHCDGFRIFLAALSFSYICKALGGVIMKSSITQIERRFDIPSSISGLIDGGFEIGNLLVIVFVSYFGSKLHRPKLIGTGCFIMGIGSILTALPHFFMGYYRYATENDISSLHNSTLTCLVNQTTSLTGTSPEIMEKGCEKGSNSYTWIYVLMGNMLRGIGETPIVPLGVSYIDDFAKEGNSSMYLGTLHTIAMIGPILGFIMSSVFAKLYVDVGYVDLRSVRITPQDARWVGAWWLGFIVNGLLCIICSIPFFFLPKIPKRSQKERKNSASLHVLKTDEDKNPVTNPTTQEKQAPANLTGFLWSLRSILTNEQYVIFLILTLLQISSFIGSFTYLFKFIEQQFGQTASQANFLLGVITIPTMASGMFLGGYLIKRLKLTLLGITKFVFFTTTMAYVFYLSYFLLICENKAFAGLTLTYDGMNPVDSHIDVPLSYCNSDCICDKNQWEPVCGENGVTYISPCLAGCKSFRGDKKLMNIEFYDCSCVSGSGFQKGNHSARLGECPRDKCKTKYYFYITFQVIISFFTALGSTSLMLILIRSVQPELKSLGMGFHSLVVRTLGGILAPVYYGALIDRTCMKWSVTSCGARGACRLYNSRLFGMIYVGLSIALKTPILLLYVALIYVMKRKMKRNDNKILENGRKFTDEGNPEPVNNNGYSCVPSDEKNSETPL
Test: Untargeted metabolomics of plasma from untreated wild-type and Oatp1b2(−/−) mice
Conditions: for Mean value WT: plasma of untreated wild-type mice; for Mean value WT / Mean value KO: raw area counts rescaled to median = 1; for Fold of Change KO/WT: plasma of untreated Oatp1b2-deficient (KO) vs wild-type (WT) mice, semi-quantitative, positive = higher in KO, n = 6 per group; for Mean value KO: plasma of untreated Oatp1b2-deficient mice
Experimental: For all experiments, age- and sex-matched mice (8–12 weeks old) were used. […] Mice with a deficiency of Oatp1b2 (Oatp1b2(−/−) mice), the single murine orthologue of OATP1B1 and OATP1B3 in humans, on a DBA/1LacJ background were kindly provided by Drs. Richard B. Kim (Western University, London, Ontario, Canada) and Jeffrey L. Stock (Pfizer, Groton, CT, USA).
Plasma samples from untreated wild-type mice and Oatp1b2(−/−) mice were analyzed for structurally named and unknown molecules using a non-targeted semi-quantitative liquid chromatography-tandem mass spectrometry (LC-MS/MS) and gas chromatography-mass spectrometry platforms (Metabolon, Durham, NC, USA). Compounds were identified by comparison with library entries of purified standards or recurrent unknown entities.

Compound | Mean value WT | Fold of Change KO/WT | Mean value KO
C=Cc1ccc(OS(=O)(=O)O)cc1 [4-vinylphenol sulfate] | .847 | 1.55 | 1.32
CCCCC/C=C\C/C=C\C/C=C\C/C=C\CCCC(=O)OC[C@@H](O)COP(=O)(O)OC1C(O)C(O)C(O)C(O)C1O (stereo partly shown) [1-arachidonoyl-GPI (20:4)] | .754 | 1.48 | 1.11
CCCCCCCCCCCCCCCC(=O)OC[C@H](COP(=O)([O-])OCC[N+](C)(C)C)OC(=O)CCCCCCCCCCCCCCC [1,2-dipalmitoyl-GPC (16:0/16:0)] | .901 | 1.31 | 1.18
equol glucuronide | .709 | 1.90 | 1.35
CCCCC/C=C\C/C=C\CCCCCCCC(=O)O[C@H](CO/C=C\CCCCCCCCCCCCCC)COP(=O)(O)OCCN [1-(1-enyl-palmitoyl)-2-linoleoyl-GPE (P-16:0/18:2)] | .862 | 1.34 | 1.16
CCC(C)C(O)C(=O)O (stereo not shown) [2-hydroxy-3-methylvalerate] | .738 | 3.15 | 2.33
CCCCC/C=C\C/C=C\CCCCCCCC(=O)OC[C@@H](O)COP(=O)(O)OCCN [1-linoleoyl-GPE (18:2)] | .736 | 1.94 | 1.42
CC(=O)Nc1ccc(C(=O)O)cc1 [4-acetamidobenzoate] | .685 | 2.14 | 1.46
CC(=O)N[C@@H](Cc1cncn1C)C(=O)O [N-acetyl-3-methylhistidine] | .878 | 1.24 | 1.09
CC(C)C(=O)O[C@H](CC(=O)[O-])C[N+](C)(C)C [isobutyrylcarnitine (C4)] | .817 | 1.40 | 1.15
CCCCCCCCCCCCCC/C=C\OC[C@H](COP(=O)([O-])OCC[N+](C)(C)C)OC(=O)CCCCCCCCCCCCCCC [1-(1-enyl-palmitoyl)-2-palmitoyl-GPC (P-16:0/16:0)] | .919 | 1.24 | 1.14

Results, then the compound that gave them:

Mean value WT | Fold of Change KO/WT | Mean value KO | Compound
.930 | – | – | sphingomyelin (d18:1/14:0, d16:1/16:0)
.540 | 3.48 | 1.88 | octadecadienedioate (C18:2-DC)
.513 | 2.18 | 1.12 | tauroursodeoxycholic acid sulfate (2)
.151 | 33.8 | 5.10 | C[C@H](CCC(=O)O)[C@H]1CC[C@H]2[C@@H]3[C@@H](O)C[C@@H]4C[C@H](O)CC[C@]4(C)[C@H]3C[C@H](O)[C@]12C [ursocholate]
.425 | 2.25 | 0.960 | C[C@H](CCC(=O)NCCS(=O)(=O)O)[C@H]1CC[C@H]2[C@@H]3CC[C@@H]4C[C@H](OS(=O)(=O)O)CC[C@]4(C)[C@H]3CC[C@]12C [taurolithocholate 3-sulfate]
.544 | 2.66 | 1.45 | octadecenedioate (C18:1-DC)
.838 | 1.53 | 1.28 | CCCCC(=O)NCC(=O)O [valerylglycine]
.916 | 1.38 | 1.27 | O=C(O)CCCCCCCCCCCCCCCCC(=O)O [octadecanedioate (C18-DC)]
.883 | 1.38 | 1.22 | C/C=C(\C)C(=O)NCC(=O)O [tigloylglycine]
